The target in experiment [1] is T1, Lp-PLA2 in human plasma (Homo sapiens, UniProt Q13093).
T1 construct: This assay may detect the activity of Lp-PLA2 in human plasma; from tissue; host or cells: pooled human plasma
T1 sequence (Q13093 22-441): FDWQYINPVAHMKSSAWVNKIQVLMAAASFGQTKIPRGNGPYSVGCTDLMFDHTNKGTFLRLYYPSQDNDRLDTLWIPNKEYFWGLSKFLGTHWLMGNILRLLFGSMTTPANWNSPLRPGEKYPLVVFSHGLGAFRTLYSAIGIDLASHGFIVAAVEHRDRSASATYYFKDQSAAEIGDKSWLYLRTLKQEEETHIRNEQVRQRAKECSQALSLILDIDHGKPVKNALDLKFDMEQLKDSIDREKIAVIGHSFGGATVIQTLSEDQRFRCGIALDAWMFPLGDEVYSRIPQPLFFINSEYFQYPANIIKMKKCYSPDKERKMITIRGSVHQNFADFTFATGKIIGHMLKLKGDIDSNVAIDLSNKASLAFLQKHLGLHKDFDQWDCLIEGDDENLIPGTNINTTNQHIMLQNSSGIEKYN
Briefly: Lp-PLA2 human plasma assay (Thio-PAF assay). As to conditions: pooled human plasma, 2-thio-PAF substrate; read-out: pIC50 in the thio-PAF assay (converted). The experiment is classed as biochemical. The method in brief:
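Pooled human plasma preincubated 30 min with serially diluted compounds, then 2-thio-PAF substrate with CPM and NEM added in 50 mM HEPES pH 7.4, 150 mM NaCl, 1 mM CHAPS. TFA-quenched after 2 min, 40 min at RT, fluorescence ex 380/em 485; pIC50 from curve fit.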

In experiment [2] the target is T2, recombinant human Lp-PLA2 (Homo sapiens, UniProt Q13093).
T2 sequence (Q13093 22-441): T1 sequence (Q13093 22-441)
In words: Recombinant human Lp-PLA2 assay (rhLp-PLA2, PED6 assay). The class given is biochemical. As to conditions: recombinant human Lp-PLA2, PED6 substrate; upper limit for pIC50 in this assay is 9.3. The method in brief: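 Compound preincubated 30 min with rhLp-PLA2 (4 nM or 110 pM) in 50 mM HEPES pH 7.4, 150 mM NaCl, 1 mM CHAPS, then PED6 substrate (4 μM or 5 μM) added. After 20 min at room temperature protected from light, fluorescence read at ex 480/em 540. pIC50 derived from serial-dilution curves.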

Counter-ions that a name gives are not always drawn.

Turning to `CC(C)N1CCn2c1cc(OCc1ccc(Oc3cccc(C(F)(F)F)c3)c(C#N)c1)nc2=O` [Example E51, 5-(((1-isopropyl-5-oxo-1,2,3,5-tetrahydroimidazo[1,2-c]pyrimidin-7-yl)oxy)methy)-2-(3-(trifluoromethyl)phenoxy)benzonitrile, trifluoroacetic acid salt], the results for the IC50 in experiment [1] and in experiment [2] were at most 100 nM and at most 1 nM, respectively.
The corresponding values for `CN1CCn2c1cc(OCc1ccc(Oc3ccc(F)c(C#N)c3)c(C#N)c1)nc2=O` [Example E52, 5-(2-cyano-4-(((1-methyl-5-oxo-1,2,3,5-tetrahydroimidazo[1,2-c]pyrimidin-7-yl)oxy)methyl)phenoxy)-2-fluorobenzonitrile] are at most 100 nM and at most 10 nM.
`CC(C)N1CCn2c1cc(OCc1ccc(Oc3ccc(F)c(F)c3)c(C#N)c1)nc2=O` [Example E53, 2-(3,4-difluorophenoxy)-5-(((1-isopropyl-5-oxo-1,2,3,5-tetrahydroimidazo[1,2-c]pyrimidin-7-yl)oxy)methyl)benzonitrile]: the IC50 in experiment [1] was at most 1000 nM; in experiment [2], at most 10 nM.
In the case of `CC(C)N1CCn2c1cc(OCc1ccc(Oc3ccc(Cl)c(C(F)(F)F)c3)cc1)nc2=O` [Example E59, 7-((4-(4-chloro-3-(trifluoromethyl)phenoxy)benzyl)oxy)-1-isopropyl-2,3-dihydroim-idazo[1,2-c]pyrimidin-5(1H)-one], the IC50 in experiment [1] is at most 100 nM; in experiment [2] it was at most 10 nM.
The corresponding values for `CN1CCn2c1cc(OCc1ccc(Oc3cccc(C#N)c3)c(C#N)c1)nc2=O` [Example E62, 2-(3-cyanophenoxy)-5-(((l-methyl-5-oxo-1,2,3,5-tetrahydroimidazo[1,2-c]pyrimidin-7-yl)oxy)methyl)benzonitrile, trifluoroacetic acid salt] are at most 1000 nM and at most 10 nM.
For `N#Cc1ccc(Oc2ccc(COc3cc4n(c(=O)n3)CCN4)cc2C#N)cc1F` [Example E64, 4-(2-cyano-4-(((5-oxo-1,2,3,5-tetrahydroimidazo[1,2-c]pyrimidin-7-yl)oxy)methyl)p-henoxy)-2-fluorobenzonitrile], the figures for the IC50 in experiment [1] and in experiment [2] were at most 100 nM and at most 10 nM, respectively.
As for `N#Cc1cc(COc2cc3n(c(=O)n2)CCN3)ccc1Oc1ccc(C(F)(F)F)c(F)c1` [Example E65, 2-(3-fluoro-4-(trifluoromethyl)phenoxy)-5-(((5-oxo-1,2,3,5-tetrahydroimidazo[1,2-c]pyrimidin-7-yl)oxy)methyl)benzonitrile], the IC50 in experiment [1] was at most 100 nM; in experiment [2] it was 0.631 nM.
The matching figures for `O=c1nc(OCc2ccc(Oc3ccc(F)c(C(F)(F)F)c3)c(F)c2)cc2n1CCN2` [Example E66, 7-((3-fluoro-4-(4-fluoro-3-(trifluoromethyl)phenoxy)benzyl)oxy)-2,3-dihydroimidaz-o[1,2-c]pyrimidin-5(1H)-one]: at most 100 nM and at most 1 nM.
The matching figures for `N#Cc1cc(COc2cc3n(c(=O)n2)CCN3)ccc1Oc1cccc(C(F)(F)F)c1` [Example E67, 5-(((5-oxo-1,2,3,5-tetrahydroimidazo[1,2-c]pyrimidin-7-yl)oxy)methyl)-2-(3-(trifluoromethyl)phenoxy)benzonitrile]: at most 100 nM and at most 1 nM.
Turning to `CN1CCn2c1cc(OCc1ccc(Oc3ccc(Br)c(F)c3)c(C#N)c1)nc2=O` [Example E70, 2-(4-bromo-3-fluorophenoxy)-5-(((I-methyl-5-oxo-1,2,3,5-tetrahydroimidazo[1,2-c]pyrimidin-7-yl)oxy)methyl)benzonitrile], the IC50 in experiment [1] is at most 1000 nM; in experiment [2] it was at most 1 nM.
In the case of `N#Cc1cc(COc2cc3n(c(=O)n2)CCN3)ccc1Oc1ccc(F)c(F)c1` [Example E72, 2-(3,4-difluorophenoxy)-5-(((5-oxo-1,2,3,5-tetrahydroimidazo[1,2-c]pyrimidin-7-yl)oxy)methyl)benzonitrile, trifluoroacetic acid salt], the IC50 in experiment [1] was at most 1000 nM; in experiment [2], at most 1 nM.
The corresponding values for `CN1CCn2c1cc(OCc1ccc(Oc3cnc(F)c(F)c3)c(C#N)c1)nc2=O` [Example E73, 2-((5,6-difluoropyridin-3-yl)oxy)-5-(((1-methyl-5-oxo-1,2,3,5-tetrahydroimidazo[1,2-c]pyrimidin-7-yl)oxy)methyl)benzonitrile] are at most 1000 nM and at most 10 nM.
Take `CN1CCn2c1cc(OCc1cc(F)c(Oc3ccc(F)c(F)c3)c(F)c1)nc2=O` [Example E75, 7-((4-(3,4-difluorophenoxy)-3,5-difluorobenzyl)oxy)-1-methyl-2,3-dihydroimida-zo[1,2-c]pyrimidin-5(1H)-one]: the IC50 is at most 1000 nM in experiment [1] and at most 10 nM in experiment [2].
The matching figures for `N#Cc1cc(COc2cc3n(c(=O)n2)CCN3)ccc1Oc1ccc(F)c(Cl)c1` [Example E76, 2-(3-chloro-4-fluorophenoxy)-5-(((5-oxo-1,2,3,5-tetrahydroimidazo[1,2-c]pyrimidin-7-yl)oxy)methyl)benzonitrile, trifluoroacetic acid salt]: at most 1000 nM and at most 1 nM.
On to `O=c1nc(OCc2ccc(Oc3cc(F)c(F)c(F)c3)c(F)c2)cc2n1CCN2` [Example E77, 7-((3-fluoro-4-(3,4,5-trifluorophenoxy)benzyl)oxy)-2,3-dihydroimidazo[1,2-c]pyrimidin-5(1H)-one, trifluoroacetic acid salt], for which the IC50 in experiment [1] is at most 1000 nM; in experiment [2], at most 1 nM.
The corresponding values for `CN1CCn2c1cc(OCc1ccc(Oc3ccc(C#N)c(C(F)(F)F)c3)c(C#N)c1)nc2=O` [Example E78, 4-(2-cyano-4-(((l-methyl-5-oxo-1,2,3,5-tetrahydroimidazo[1,2-c]pyrimidin-7-yl)oxy)methyl)phenoxy)-2-(trifluoromethyl)benzonitrile] are at most 100 nM and below 0.501 nM.
The corresponding values for `CN1CCn2c1cc(OCc1ccc(Oc3ccnc(C(F)(F)F)c3)c(C#N)c1)nc2=O` [Example E80, 5-(((1-methyl-5-oxo-1,2,3,5-tetrahydroimidazo[1,2-c]pyrimidin-7-yl)oxy)methyl)-2-((2-(trifluoromethyl)pyridin-4-yl)oxy)benzonitrile] are at most 100 nM and 1.26 nM.
The matching figures for `CN1CCn2c1cc(OCc1cc(F)c(Oc3ccc(F)c(C(F)(F)F)c3)c(F)c1)nc2=O` [Example E81, 7-((3,5-difluoro-4-(4-fluoro-3-(trifluoromethyl)phenoxy)benzyl)oxy)-1-methyl-2,3-dihydroimidazo[1,2-c]pyrimidin-5(1H)-one]: at most 100 nM and at most 1 nM.
As for `CN1CCn2c1cc(OCc1cc(F)c(Oc3cccc(Cl)c3)c(F)c1)nc2=O` [Example E82, 7-((4-(3-chlorophenoxy)-3,5-difluorobenzyl)oxy)1-methyl-2,3-dihydroimidazo[1,2-c]pyrimidin-5(1H)-one], the results for the IC50 in experiment [1] and in experiment [2] were at most 1000 nM and at most 1 nM, respectively.
On to `CN1CCn2c1cc(OCc1ccc(Oc3ccc(C#N)c(C(F)(F)F)c3)c(F)c1)nc2=O` [Example E83, 4-(2-fluoro-4-(((1-methyl-5-oxo-1,2,3,5-tetrahydroimidazo[1,2-c]pyrimidin-7-yl)oxy)methyl)phenoxy)-2-(trifluoromethyl)benzonitrile, trifluoroacetic acid salt], for which the IC50 in experiment [1] was at most 100 nM; in experiment [2], 0.631 nM.
For `CN1CCn2c1cc(OCc1cc(F)c(Oc3ccc(C(F)(F)F)cc3)c(F)c1)nc2=O` [Example E84, 7-((3,5-difluoro-4-(4-(trifluoromethyl)phenoxy)benzyl)oxy)-1-methyl-2,3-dihydroimidazo[1,2-c]pyrimidin-5(1H)-one], the IC50 in experiment [1] was at most 1000 nM; in experiment [2], at most 10 nM.
The matching figures for `CN1CCn2c1cc(OCc1ccc(Oc3ccc(Cl)c(C(F)(F)F)c3)c(F)c1)nc2=O` [Example E85, 7-((4-(4-chloro-3-(trifluoromethyl)phenoxy)-3-fluorobenzyl)oxy)-1-methyl-2,3-dihydroimidazo[1,2-c]pyrimidin-5(1H)-one]: at most 100 nM and at most 1 nM.
The matching figures for `CN1CCn2c1cc(OCc1cc(F)c(Oc3ccc(Cl)c(F)c3)c(F)c1)nc2=O` [Example E86, 7-((4-(4-chloro-3-fluorophenoxy)-3,5-difluorobenzyl)oxy)-1-methyl-2,3-dihydroimi-dazo[1,2-c]pyrimidin-5(1H)-one]: at most 100 nM and at most 1 nM.
In the case of `CN1CCn2c1cc(OCc1cc(F)c(Oc3ccc(F)c(Cl)c3)c(F)c1)nc2=O` [Example E87, 7-((4-(3-chloro-4-fluorophenoxy)-3,5-difluorobenzyl)oxy)-1-methyl-2,3-dihydroimidazo[1,2-c]pyrimidin-5(1H)-one], the IC50 is at most 100 nM in experiment [1] and at most 1 nM in experiment [2].

These data come from patent US8975400B2, “2,3-dihydroimidazo[1, 2-c] pyrimidin-5(1 H)-one compounds use as LP-PLA2 inhibitors” (Glaxo Group Limited, priority 2011, dated 2015).
